22 molecules from patent publication US20240002388A1, “PYRIMIDINONE COMPOUNDS AND USES THEREOF” (HUTCHISON MEDIPHARMA LIMITED, priority 2020, published 2024) can be followed below.

The subject of the test is IL-1β production in human whole blood. As to the kind of experiment: TNF-α, Z-VAD-FMK and SM-164 induced IL-1β production in human whole blood. The format is cell-based. Particulars: Z-VAD-FMK and SM-164 stimulation, 6 hours, IL-1β ELISA. The source says: • Human blood samples were collected by venipuncture from healthy volunteers, with signed consent from each volunteer before blood collection; • RPMI 1640 medium: L-Glutamine, 1.5 g/L NaHCO3, 2.383 g/L HEPES solution, 0.11 g/L sodium pyruvate and 4.5 g/L Glucose; Gibco, catalog: A10491-01; • Dimethyl sulfoxide (DMSO): Sigma, catalog: D2650; • Recombinant Human TNF-alpha Protein (hTNF-α): R&D system, catalog: 210-TA-100; • Pan-Caspase inhibitor (Z-VAD-FMK): Selleckchem, catalog: S7023; • Smac Mimetic-164 (SM-164): APEXBIO, catalog: A8815; • Human IL-1 beta/IL-1F2 Quantikine ELISA Kit: R&D systems, catalog: SLB50; • Envision Multimode Microplate Reader: PerkinElmer; • 96-well clear flat bottom TC-treated culture microplate: Falcon, catalog: 353072; • 96-well Microplate (U bottom): Corning, catalog: 3799. 2. Assay Protocol Human whole blood was anti-coagulated with heparin and used in human whole blood assay immediately. Fresh heparinized human whole blood was diluted with an equal volume of RPMI 1640 medium, aliquoted the diluted blood into 96-well plate, 90 μL each well.
Compound preparation: dilute the compound stock using DMSO and perform 3-fold serial dilution to 8-points. Then transfer the diluted compounds to RPMI 1640 medium and mix.
Compound treatment and stimulation: transfer 5 μL of the diluted compound to appropriate wells of the plate. The final concentration of the compound was 1.0, 0.333, 0.111, 0.037, 0.012, 0.004, 0.0014 and 0.0005 μM, and each well contained 0.3% DMSO. For positive and negative control wells, add 5 μL of RPMI 1640 medium with 3% DMSO. And incubate the plate at 5% CO2, 37° C. for 1 hour.
Then 5 μL of the mixture of stimuli (TNF-α, Z-VAD-FMK and SM-164) was added with the final concentration of […] except negative control wells. The negative control wells were added same volume of RPMI 1640 medium.
After incubation 6 hours in a 37° C./5% CO2 incubator, each well was added with 100 μL of PBS, and centrifuged at 4000 rmp for 10 minutes. The 110 μL of supernatant per well was collected, and stored at −80° C. for ELISA.
Prepared 100 μL of IL-1β standards (in duplicate) in designated wells. ELISA was operated according to manufacturer's instruction. In the end, measured the ELISA plate absorbance at 450 nm/570 nm using Envision.
Inhibition rates of compounds on TNF-α, Z-VAD-FMK and SM-164 induced IL-1β Production in human whole blood were calculated as follows: • IL-1β level was calculated with IL-1β standard curve (standard curve fitting equation is four parameters logistic model)
[formula] • IL-1β levelstimulated: the concentration of IL-1β in the positive control wells which added TNF-α, Z-VAD-FMK, SM-164 and no compound; • IL-1β levelnon-stimulated: the concentration of IL-1β in the negative control wells without the treatment of TNF-α, Z-VAD-FMK, SM-164 and compound; • IL-1β levelcompound: the concentration of IL-1β in the wells with the treatment of TNF-α, Z-VAD-FMK, SM-164 and compound. • The IC50 value of compound is determined with XLFit 5 software (ID Business Solutions Limited).
As usually defined, the IC50 is the point on the concentration scale where inhibition reaches its midpoint. With `CC(C)n1cncc(-c2ccc(C3(NC(=O)c4ncc5cnn([C@H](C)C6CC6)c5n4)CC3)cc2)c1=O` [Compound 89, (R)-1-(1-cyclopropylethyl)-N-(1-(4-(1-i-propyl-6-oxo-1,6-dihydropyrimidin-5-yl)phenyl)cyclopropyl)-1H-pyrazolo[3,4-d]pyrimidine-6-carboxamide], the midpoint of inhibition, the IC50, lay at 18 nM. The same measure for `CC(C)n1ncc2cnc(C(=O)NC3(c4ccc(-c5cncn(CC6CC6)c5=O)cc4)CC3)nc21` [Compound 36]: 4 nM; for `CC(C)n1cncc(-c2ccc(C3(NC(=O)c4ncc5cnn(CC6CC6)c5n4)CC3)cc2)c1=O` [Compound 61]: 11 nM. The same measure for `CC(C)n1cncc(-c2ccc(C3(NC(=O)c4ncc5cnn(C6COC6)c5n4)CC3)cc2)c1=O` [Compound 60]: 10 nM; for `CC(C)n1ncc2cnc(C(=O)NC3(c4ccc(-c5cncn(C6COC6)c5=O)cc4)CC3)nc21` [Compound 41]: 18 nM.

Consider `C[C@H](n1cncc(-c2ccc(C3(NC(=O)c4ncc5cnn(CC6CC6)c5n4)CC3)cc2)c1=O)C(F)(F)F` [Compound 68], for which the IC50 worked out at 43 nM. With `C[C@@H](n1cncc(-c2ccc(C3(NC(=O)c4ncc5cnn(CC6CC6)c5n4)CC3)c(F)c2)c1=O)C(F)(F)F` [Compound 76] the figure was 9 nM.

Take `CC(C)n1ncc2cnc(C(=O)NC3(c4ccc(-c5cncn(CC6CC6)c5=O)cc4F)CC3)nc21` [Compound 74]: the IC50 was determined as 13 nM. `CC(C)n1ncc2cnc(C(=O)NC3(c4ccc(-c5cncn([C@@H](C)C(F)(F)F)c5=O)cc4F)CC3)nc21` (stereo in doubt) [Compound 47] showed an IC50 of 9 nM. With `C[C@@H](n1cncc(-c2ccc(C3(NC(=O)c4ncc5cnn(CC6CC6)c5n4)CC3)cc2)c1=O)C(F)(F)F` [Compound 70] the figure was 8 nM; with `CC(C)n1cncc(-c2ccc(C3(NC(=O)c4ncc5cnn(C(C)C)c5n4)CC3)cc2)c1=O` [Compound 29, 1-isopropyl-N-(1-(4-(1-isopropyl-6-oxo-1,6-dihydropyrimidin-5-yl)phenyl)cyclopropyl)-1H-pyrazolo[3,4-d]pyrimidine-6-carboxamide], 4 nM; with `CC(C)n1cncc(-c2ccc(C3(NC(=O)c4ncc5cnn(C(C)C6CC6)c5n4)CC3)cc2)c1=O` (racemic) [Compound 59, 1-(1-cyclopropylethyl)-N-(1-(4-(1-i-propyl-6-oxo-1,6-dihydropyrimidin-5-yl)phenyl)cyclopropyl)-1H-pyrazolo[3,4-d]pyrimidine-6-carboxamide], 4 nM.

Take `O=C(NC1(c2ccc(-c3cncn(CC4CC4)c3=O)cc2)CC1)c1ncc2cnn(CC3CC3)c2n1` [Compound 64]: the IC50 turned out to be 12 nM. The molecule `CC(C)n1cncc(-c2ccc(C3(NC(=O)c4ncc5cnn([C@@H](C)C6CC6)c5n4)CC3)cc2)c1=O` [Compound 90, (S)-1-(1-cyclopropylethyl)-N-(1-(4-(1-i-propyl-6-oxo-1,6-dihydropyrimidin-5-yl)phenyl)cyclopropyl)-1H-pyrazolo[3,4-d]pyrimidine-6-carboxamide] yielded an IC50 of 7 nM. In turn, `CC(C)n1ncc2cnc(C(=O)NC3(c4ccc(-c5cncn([C@H](C)C6CC6)c5=O)cc4)CC3)nc21` [Compound 84, (R)—N-(1-(4-(1-(1-cyclopropylethyl)-6-oxo-1,6-dihydropyrimidin-5-yl)phenyl)cyclopropyl)-1-i-propyl-1H-pyrazolo[3,4-d]pyrimidine-6-carboxamide] displayed an IC50 of 5 nM. As to `CC(C)n1ncc2cnc(C(=O)NC3(c4ccc(-c5cncn(CC6CC6)c5=O)c(F)c4)CC3)nc21` [Compound 75], the IC50 came out at 11 nM. With `CC(C)n1ncc2cnc(C(=O)NC3(c4ccc(-c5cncn([C@H](C)C(F)(F)F)c5=O)cc4F)CC3)nc21` (stereo in doubt) [Compound 46] the figure was 6 nM. In the case of `CC(C)n1cncc(-c2ccc(C3(NC(=O)c4ncc5cnn(CC6CC6)c5n4)CC3)c(F)c2)c1=O` [Compound 72], the IC50 was found to be 39 nM.

`C[C@H](n1cncc(-c2ccc(C3(NC(=O)c4ncc5cnn(CC6CC6)c5n4)CC3)c(F)c2)c1=O)C(F)(F)F` [Compound 71] returned an IC50 of 38 nM. The same measure for `CC(C)n1ncc2cnc(C(=O)NC3(c4ccc(-c5cncn(CC6(C)CC6)c5=O)cc4)CC3)nc21` [Compound 86]: 13 nM; for `CC(C)n1ncc2cnc(C(=O)NC3(c4ccc(-c5cncn([C@@H](C)C6CC6)c5=O)cc4)CC3)nc21` [Compound 85, (S)—N-(1-(4-(1-(1-cyclopropylethyl)-6-oxo-1,6-dihydropyrimidin-5-yl)phenyl)cyclopropyl)-1-i-propyl-1H-pyrazolo[3,4-d]pyrimidine-6-carboxamide]: 5 nM.

Molecule `CC(C)n1cncc(-c2ccc(C3(NC(=O)c4ncc5cnn(CC6CC6)c5n4)CC3)cc2F)c1=O` [Compound 73] displayed an IC50 of 21 nM.
